Consider 16 compounds from PubChem BioAssay (NCI).

Test systems include 786-0 renal; OVCAR-8 ovarian; HCT-116 colon; SK-MEL-28 melanoma; K-562 leukemia; RPMI-8226 leukemia; NCI-H460 lung; HS 578T breast; SN12C renal; LOX IMVI melanoma.
Holding throughout (assay): DTP human tumour cell line panel, 48 h

Each structure is given as a SMILES string.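 Tested at 5 concentrations; 48 h exposure; 96-well plates; endpoints linearly interpolated, else capped at highest concentration. TGI is the concentration that stops growth completely.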 Where only a bound is given, the exact number is not on record here.

In general, TGI refers to the concentration giving total growth inhibition. A high value points to lower sensitivity of the cells. As for `CC[C@@]1(O)C(=O)OCc2c1cc1n(c2=O)Cc2c-1nc1ccccc1c2CC[Si](C)(C)C`, the TGI in the test with 786-0 renal is less than 0.0266 µM; in the test on OVCAR-8 ovarian it was more than 100 µM; in the test on HCT-116 colon, 0.116 µM; with SK-MEL-28 melanoma it was more than 100 µM; with K-562 leukemia, more than 100 µM; in the test on RPMI-8226 leukemia, 0.834 µM. Also, the concentration for total growth inhibition (TGI) in the test with NCI-H460 lung was less than 0.0335 µM; in the test on HS 578T breast, more than 100 µM.
Take `CC(C)(C)[Si](C)(C)OCCCC#CCO`: the concentration for total growth inhibition (TGI) in the test on OVCAR-8 ovarian, in the test with SN12C renal, with SK-MEL-28 melanoma, with K-562 leukemia, with RPMI-8226 leukemia and with LOX IMVI melanoma was more than 100 µM throughout. In the test with NCI-H460 lung, this compound returned a TGI of more than 100 µM.
For `N#CCC(=O)Nn1c(CC#N)nnc1Cc1ccccc1`, the TGI in the test on 786-0 renal, in the test on OVCAR-8 ovarian, in the test on HCT-116 colon, with SK-MEL-28 melanoma, in the test with K-562 leukemia and in the test with RPMI-8226 leukemia was more than 100 µM each time. The total growth inhibition concentration (TGI) with NCI-H460 lung and with HS 578T breast was more than 100 µM in each case.
For `Cc1c(-c2cc3n(n2)C(c2cccs2)C(C#N)=C(c2ccccc2)N3)c(=O)n(-c2ccccc2)n1C` (configuration not stated), the TGI with OVCAR-8 ovarian, in the test on HCT-116 colon, in the test on SN12C renal, in the test on SK-MEL-28 melanoma, in the test on K-562 leukemia and in the test on LOX IMVI melanoma was more than 100 µM throughout. The total growth inhibition concentration (TGI) in the test on NCI-H460 lung is more than 100 µM.
As for `COC(OC)c1cccc2c1C1(O)CCC3(CC21)OCCCCO3` (configuration not stated), the total growth inhibition concentration (TGI) in the test with 786-0 renal, in the test on OVCAR-8 ovarian, in the test with HCT-116 colon, in the test on SN12C renal, with SK-MEL-28 melanoma and with K-562 leukemia was more than 100 µM each time. The TGI in the test with RPMI-8226 leukemia, with LOX IMVI melanoma and in the test with NCI-H460 lung was more than 100 µM each time.
Consider `CC[N+]1(C)CCC(O)(c2ccc(Cl)cc2)C(C(=O)c2ccc(Cl)cc2)C1` (configuration not stated), for which the TGI in the test on OVCAR-8 ovarian was more than 100 µM; with HCT-116 colon, 46.7 µM; in the test with SN12C renal, 37.5 µM; in the test on SK-MEL-28 melanoma it was 29.4 µM; with K-562 leukemia it was 17.2 µM; in the test on LOX IMVI melanoma it was 25.6 µM. In addition, the figures for the TGI in the test on NCI-H460 lung and in the test with HS 578T breast were 63.8 µM and 38.3 µM, respectively.
On to `O=C(N/N=C1\CCc2ccccc2C1)N/N=C1\CCc2ccccc2C1`, for which the concentration for total growth inhibition (TGI) with 786-0 renal, with OVCAR-8 ovarian, in the test on HCT-116 colon, with SN12C renal, in the test on K-562 leukemia and in the test with RPMI-8226 leukemia was more than 10 µM in each case. The compound also had a total growth inhibition concentration (TGI) in the test with NCI-H460 lung of more than 10 µM.
For the compound `COc1ccc(/C=C2\CSC/C(=C\c3ccc(OC)c(OC)c3OC)C2=O)c(OC)c1OC`, the concentration for total growth inhibition (TGI) was 48.1 µM in the test with 786-0 renal; 80.8 µM in the test on OVCAR-8 ovarian; 39 µM in the test with HCT-116 colon; 78.2 µM in the test on SN12C renal; more than 100 µM in the test with SK-MEL-28 melanoma; more than 100 µM in the test on K-562 leukemia. In addition, the figures for the TGI with RPMI-8226 leukemia, in the test with LOX IMVI melanoma and in the test on NCI-H460 lung were 67.3 µM, 83.3 µM and more than 100 µM, respectively.
Regarding `O=C(c1cc(Cl)cc(Cl)c1)N(C(=S)OC12CC3CC(CC(C3)C1)C2)c1ccccc1`, the total growth inhibition concentration (TGI) in the test on 786-0 renal, with OVCAR-8 ovarian, in the test with HCT-116 colon, in the test with SN12C renal, in the test with SK-MEL-28 melanoma and in the test with NCI-H460 lung was more than 100 µM throughout. This compound returned a TGI in the test on HS 578T breast of more than 100 µM.
`NNC(=O)CNC(=O)CSc1nnc(COc2ccc(Cl)cc2)n1-c1ccccc1`: the TGI with 786-0 renal, with OVCAR-8 ovarian, in the test on HCT-116 colon, in the test on SN12C renal, in the test with SK-MEL-28 melanoma and with K-562 leukemia was more than 100 µM in each case. Further, the TGI in the test with LOX IMVI melanoma and in the test on NCI-H460 lung was more than 100 µM each time.
As for `C=C(C=O)c1c2c(nc3ccccc13)C(=O)c1ccccc1C2=O`, the total growth inhibition concentration (TGI) is more than 100 µM in the test on 786-0 renal; 2.3 µM in the test with OVCAR-8 ovarian; 3.48 µM with HCT-116 colon; 41.3 µM in the test on SN12C renal; more than 22.5 µM with K-562 leukemia; 45 µM in the test with LOX IMVI melanoma. The TGI with HS 578T breast turned out to be 0.961 µM.
Take `Cc1cc2[nH]c3c(C#N)c(-c4ccccc4)c(N=Nc4cccc(C(F)(F)F)c4)c(=O)n3c2cc1C`: the TGI in the test with 786-0 renal, in the test with OVCAR-8 ovarian, in the test with HCT-116 colon, in the test on SN12C renal, with SK-MEL-28 melanoma and in the test on RPMI-8226 leukemia was more than 100 µM in each case. The TGI in the test on LOX IMVI melanoma and in the test with NCI-H460 lung was more than 100 µM throughout.
As to `CCOP(=O)(Nc1ccc(-c2ccccc2)cc1)OCC`, the TGI in the test on 786-0 renal, with OVCAR-8 ovarian, in the test on HCT-116 colon, in the test on SK-MEL-28 melanoma, with K-562 leukemia and in the test with RPMI-8226 leukemia was more than 100 µM in each case. For the same compound, the TGI with NCI-H460 lung and in the test with HS 578T breast was more than 100 µM each time.
Consider `O=P(O)(O)C(CSc1ccccc1)P(=O)(O)O`, for which the TGI with OVCAR-8 ovarian, in the test with HCT-116 colon, in the test on SN12C renal, with SK-MEL-28 melanoma, in the test with K-562 leukemia and in the test on RPMI-8226 leukemia was more than 100 µM each time. The TGI with LOX IMVI melanoma and in the test on NCI-H460 lung was more than 100 µM throughout.
With `O=C(O)CSc1cc(-c2ccccc2)nc2ccccc12`, the TGI in the test on 786-0 renal is more than 100 µM; in the test with OVCAR-8 ovarian, more than 100 µM; in the test with HCT-116 colon, 22 µM; with SN12C renal it was more than 100 µM; in the test on SK-MEL-28 melanoma, more than 100 µM; in the test with K-562 leukemia it was more than 100 µM. The TGI is more than 100 µM in the test on LOX IMVI melanoma, more than 100 µM in the test with NCI-H460 lung and 61.4 µM with HS 578T breast.
Regarding `CC(=O)[O-].CC(=O)[O-].O=C(N/N=C/c1cc(Cl)cc(Cl)c1[OH2+])c1ccncc1.[Co+2]`, the TGI in the test with 786-0 renal, in the test with OVCAR-8 ovarian, in the test on HCT-116 colon, with SN12C renal, in the test on SK-MEL-28 melanoma and in the test on K-562 leukemia was more than 100 µM throughout. The TGI in the test on RPMI-8226 leukemia, with LOX IMVI melanoma and in the test on NCI-H460 lung was more than 100 µM throughout.
